The target of one assay is BCHE (Mus musculus (Mouse), UniProt Q03311). The experiment in a line: in vivo ABPP coupled to quantitative mass spectrometry (FP-biotin, ReDiMe). The conditions noted are these: brain proteomes of treated mice. The method, then:
(§1) The extent of these target profiles were confirmed by performing ABPP coupled to high-resolution, quantitative mass spectrometry (MS). Briefly, brain proteomes from compound and vehicle-treated mice were incubated with the serine hydrolase directed activity-based probe FP-biotin, and probe-labeled enzymes were enriched by streptavidin chromatography, digested on bead with trypsin, and the resulting tryptic peptides modified by reductive dimethylation (ReDiMe) of lysine residues using isotopically heavy and light formaldehyde, respectively. In these experiments, inhibited serine hydrolases are identified as enzymes showing low heavy/light ReDiMe ratios.

The target of another assay is PAFAH2 (Mus musculus (Mouse), UniProt Q8VDG7). Described as above. The following applies: brain proteomes of treated mice. As for the experimental part:
as §1

In the next assay the target is DAGLβ (Mus musculus (Mouse), UniProt Q91WC9). The experiment in a line: time-course of DAGL inhibition and recovery in mice, competitive ABPP with compound 58 probe. The format is in vivo. The following applies: 3 mg/kg. As for the experimental part: (§2) Inhibition of DAGL in mice with DAGL compounds 14 and 17 was investigated as a function of time as determined by competitive ABPP using the compound 58 probe (1 μM, 30 min).

A further assay has as its target DAGLα (Mus musculus (Mouse), UniProt Q6WQJ1). Described as above. The format is in vivo. The conditions noted are these: 3 mg/kg. The method, then:
as §2

Chain of DAGLα (Q6WQJ1 whole entry): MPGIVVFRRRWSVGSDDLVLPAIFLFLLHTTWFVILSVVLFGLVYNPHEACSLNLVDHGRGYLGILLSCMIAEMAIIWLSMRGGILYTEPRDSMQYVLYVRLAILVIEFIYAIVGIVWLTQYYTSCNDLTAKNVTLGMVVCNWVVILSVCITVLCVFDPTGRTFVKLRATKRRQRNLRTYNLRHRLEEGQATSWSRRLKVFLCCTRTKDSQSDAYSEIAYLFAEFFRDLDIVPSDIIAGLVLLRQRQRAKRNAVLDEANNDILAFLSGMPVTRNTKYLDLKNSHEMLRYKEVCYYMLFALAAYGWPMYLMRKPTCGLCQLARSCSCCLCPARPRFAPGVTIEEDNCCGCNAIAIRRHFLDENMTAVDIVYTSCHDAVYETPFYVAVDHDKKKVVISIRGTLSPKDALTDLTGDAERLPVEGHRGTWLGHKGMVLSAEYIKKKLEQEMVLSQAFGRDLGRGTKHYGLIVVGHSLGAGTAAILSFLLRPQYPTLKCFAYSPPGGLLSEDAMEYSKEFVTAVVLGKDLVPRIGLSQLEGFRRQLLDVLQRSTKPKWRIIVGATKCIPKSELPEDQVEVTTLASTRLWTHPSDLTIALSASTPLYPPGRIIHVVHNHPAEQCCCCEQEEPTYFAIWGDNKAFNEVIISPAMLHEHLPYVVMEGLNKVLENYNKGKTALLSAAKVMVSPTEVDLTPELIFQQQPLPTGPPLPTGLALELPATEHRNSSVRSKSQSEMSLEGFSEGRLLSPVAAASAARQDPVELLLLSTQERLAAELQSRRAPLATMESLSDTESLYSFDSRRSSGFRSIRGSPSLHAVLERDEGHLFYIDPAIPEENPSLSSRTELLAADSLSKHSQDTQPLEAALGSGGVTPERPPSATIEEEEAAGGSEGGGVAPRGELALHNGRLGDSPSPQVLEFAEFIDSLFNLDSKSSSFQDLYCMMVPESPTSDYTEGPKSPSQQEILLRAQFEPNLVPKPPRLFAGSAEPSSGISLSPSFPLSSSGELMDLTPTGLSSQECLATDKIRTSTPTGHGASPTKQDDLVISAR
Chain of PAFAH2 (Q8VDG7 whole entry): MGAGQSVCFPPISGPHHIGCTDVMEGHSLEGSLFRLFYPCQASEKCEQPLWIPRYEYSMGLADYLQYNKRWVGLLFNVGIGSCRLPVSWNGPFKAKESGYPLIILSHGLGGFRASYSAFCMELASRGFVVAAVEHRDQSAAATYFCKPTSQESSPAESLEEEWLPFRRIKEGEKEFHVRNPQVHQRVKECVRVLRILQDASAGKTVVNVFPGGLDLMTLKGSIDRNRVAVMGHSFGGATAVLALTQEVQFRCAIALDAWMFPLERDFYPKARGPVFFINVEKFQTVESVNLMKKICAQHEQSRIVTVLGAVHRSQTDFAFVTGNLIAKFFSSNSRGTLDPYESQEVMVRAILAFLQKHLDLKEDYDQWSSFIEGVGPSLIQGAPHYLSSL
Chain of DAGLβ (Q91WC9 whole entry): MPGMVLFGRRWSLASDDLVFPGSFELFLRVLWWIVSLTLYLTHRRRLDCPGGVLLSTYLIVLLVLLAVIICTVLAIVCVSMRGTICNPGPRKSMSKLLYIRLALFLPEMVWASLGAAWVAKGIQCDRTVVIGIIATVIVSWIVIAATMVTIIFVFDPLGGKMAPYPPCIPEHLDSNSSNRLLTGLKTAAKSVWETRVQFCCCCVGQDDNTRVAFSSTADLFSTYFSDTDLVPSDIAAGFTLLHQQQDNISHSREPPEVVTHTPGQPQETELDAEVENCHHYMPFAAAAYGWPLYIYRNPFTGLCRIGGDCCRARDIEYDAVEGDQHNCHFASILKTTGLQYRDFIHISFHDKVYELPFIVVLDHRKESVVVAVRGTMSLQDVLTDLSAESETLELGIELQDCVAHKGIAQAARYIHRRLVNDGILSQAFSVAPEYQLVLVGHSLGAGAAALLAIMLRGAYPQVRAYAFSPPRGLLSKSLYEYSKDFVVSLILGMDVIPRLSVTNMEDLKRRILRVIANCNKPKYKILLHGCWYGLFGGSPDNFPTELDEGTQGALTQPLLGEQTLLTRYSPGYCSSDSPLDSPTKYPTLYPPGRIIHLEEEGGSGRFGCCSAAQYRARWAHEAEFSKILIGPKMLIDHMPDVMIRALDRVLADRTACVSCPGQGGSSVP
Chain of BCHE (Q03311 30-603 limits assumed): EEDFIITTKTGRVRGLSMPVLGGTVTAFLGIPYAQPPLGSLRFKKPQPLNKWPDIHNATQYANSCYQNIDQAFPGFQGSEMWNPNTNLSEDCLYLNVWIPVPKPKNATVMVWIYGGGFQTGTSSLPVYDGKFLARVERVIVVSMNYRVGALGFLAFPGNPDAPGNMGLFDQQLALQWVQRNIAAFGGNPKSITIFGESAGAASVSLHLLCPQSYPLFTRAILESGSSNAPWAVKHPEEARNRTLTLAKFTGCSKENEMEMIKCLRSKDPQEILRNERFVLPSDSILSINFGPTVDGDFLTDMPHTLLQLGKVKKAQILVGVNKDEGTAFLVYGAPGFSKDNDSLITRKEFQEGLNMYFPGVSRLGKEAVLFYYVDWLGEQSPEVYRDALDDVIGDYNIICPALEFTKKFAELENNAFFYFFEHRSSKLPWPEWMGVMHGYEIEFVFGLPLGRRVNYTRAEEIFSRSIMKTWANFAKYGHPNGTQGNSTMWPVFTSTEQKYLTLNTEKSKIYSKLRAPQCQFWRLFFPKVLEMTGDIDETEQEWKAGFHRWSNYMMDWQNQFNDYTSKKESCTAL

Regarding `C#CCO[C@@H]1CC[C@H](Cc2ccccc2)N(C(=O)n2ncc(C(O)(c3ccc(F)cc3)c3ccc(F)cc3)n2)C1` [Compound 14, ((2R,5R)-2-Benzyl-5-(prop-2-ynyloxy)piperidin-1-yl)(4-(bis(4-fluorophenyl)(hydroxy)methyl)-2H-1,2,3-triazol-2-yl)methanone], the “heavy/light ReDiMe ratio, BCHE (off-target)” value at BCHE was < 0.5.
For `CC(C)(C)OC(=O)N1CCN(C(=O)n2cc(-c3ccc(OC(F)(F)F)cc3)nn2)C(Cc2ccccc2)C1` (centres unmarked) [Compound 17, tert-Butyl 3-benzyl-4-(4-(4-(trifluoromethoxy)phenyl)-1H-1,2,3-triazole-1-carbonyl)piperazine-1-carboxylate], on PAFAH2, the “heavy/light ReDiMe ratio, PAFAH2 (off-target)” value is recorded as < 0.5. Also, at DAGLβ, the “inhibition of DAGLβ” value is listed as “inhibited”. Further, on DAGLα, the “time by which DAGLα enzyme activity recovered” value was ≤ 4 h and the “time to substantial inhibition of DAGLα after administration” value is ≤ 30 min.

Values taken from US10583137B2, “Triazole DAGLα inhibitors” (THE SCRIPPS RESEARCH INSTITUTE, priority 2015, dated 2020).
